From patent US10105410B2, “Heparanase inhibitory peptides and use thereof for treating clinical pathologies” (RAMBAM MED-TECH LTD., priority 2014, dated 2018) come the findings set out here.

Experiment [1] has as its system arterial thrombus in the carotid artery. Nature of the experiment: Carotid artery 90% stenosis arterial thrombosis, MSB staining. It counts as in vivo, mice. As to conditions: single s.c. injection, 2 mg/kg; 24 hours after 90% stenosis. On the procedure:
In a complimentary experiment, mice returned to normal activity after being subjected to stenosis of 90% of the carotid artery. 24 hours later mice were sacrificed. Sections of the carotid artery were analyzed by MSB (Martin, Scarlet, Blue) staining. In the treatment group, following a single s.c. injection of the peptides, almost no fibrin (thrombus) was formed, while in the control group large arterial thrombus was observed. The results are exemplified in FIG. 6B for a control mouse (left panel) and a mouse treated with 2 mg/kg of the peptide set forth in SEQ ID NO: 4 (right panel).

Another experiment relates to IVC thrombus. Nature of the experiment: Inferior vena cava (IVC) thrombosis model. As to conditions: 2 mg/kg s.c. immediately before IVC exposure; no heparanase injected. It counts as in vivo, mice. On the procedure: A large thrombus located distal to the IVC ligation (FIG. 6A, panel I) and after IVC was harvested (FIG. 6A, panel II), was observed. This observation was verified by H&E staining (FIG. 6A, panel III, ×10; FIG. 6A, panel IV, ×100). In subsequent experiments, peptides 3, 4 and 5 were introduced subcutaneously, at a dose of 2 mg/kg, immediately before the IVC exposure. Heparanase was not injected in this line of experiments. Each experimental group included 5 mice. The IVC was re-exposed (FIG. 6A, panel V) and then dissected (FIG. 6A, panel VI). Note that only engorged blood was present and thrombus distal to the IVC ligation was absent. This observation was verified by H&E staining (FIG. 6A, panel VII, ×10; FIG. 6A, panel VIII, ×100). […] Images were visualized through a 0.82 MDC objective lens, captured with a Nikon […] digital camera (Nikon, Tokyo, Japan), and processed with Adobe Photoshop software (Adobe Systems, San Jose, Calif.).

In experiment [2] the test system is B16 mouse melanoma tumors. Nature of the experiment: Tumor vascularization, MSB stained tumor sections. The following applies: MSB staining. It counts as in vivo, mice.
The subject of experiment [3] is procoagulant effect of heparanase. The experiment is described as follows: Heparanase-induced coagulation activation in ICR mice, plasma TAT ELISA. The following applies: heparanase 0.5 mg/kg i.p.; peptide 1 or 2 mg/kg s.c. after 30 min; blood after 4 hours. The format is in vivo. Here is the method: (§1) Thrombin-antithrombin complex (TAT) complex was evaluated according to the manufacturer recommendations by Enzygnost® TAT micro ELISA purchased from Siemens (Marburg, Germany). D-dimer assay was performed on the STA-R evolution analyzer (Diagnostica Stago) using recombinant STA-LIATEST D-DI kit (Diagnostica Stago).
Heparanase (Hepa) was injected intra-peritoneal to ICR mice at a dose of 0.5 mg/kg. After 30 min. peptides corresponding to SEQ ID NOs: 2-5 and 7 were injected at a dose of 1 mg/kg (dashed fill) or 2 mg/kg (solid fill) subcutaneously between the shoulders, into the loose skin over the neck. Blood was drawn after 4 hours, and the plasma was analyzed by ELISA for thrombin-antithrombin (TAT) levels.

A further experiment has as its system coagulation activation. Nature of the experiment: Intra-peritoneal heparanase injection to ICR mice, plasma TAT, D-Dimer, IL-6. The format is in vivo. As to conditions: 0.5 mg/kg i.p.; blood after 4 hours. On the procedure: as §1
Material and method used as in Example 1. Heparanase (Hepa) was injected intra-peritoneal at a dose of 0.5 mg/kg to ICR mice. After 4 hours blood was drawn and the plasma was studied by ELISA to thrombin-antithrombin complex (TAT), D-Dimer as markers of coagulation activation and IL-6 as marker of sepsis severity. Please note that when compared with the control group (PBS) heparanase (Hepa) increased the levels of TAT and D-Dimer in a similar magnitude to that of LPS injected at a dose of 5 mg/kg that cause a moderate sepsis (FIG. 1A, B).

As to “AEICLLPLDYGPCR [SEQ ID NO: 4, peptide derived from TFPI-2]”, the “fibrin (thrombus) formation in carotid artery” value in experiment [1] is “early thrombus”. Moreover, the “clot formation / thrombus distal to the IVC ligation” value (from here on “clot formation / thrombus distal”) with IVC thrombus is reported as “absent”. Also, the tumor vascularization entry in experiment [2] is on record as “little to null vascularization”. Turning to “ICLLPLDYGPCRAL [SEQ ID NO: 3, peptide derived from TFPI-2]”, the “clot formation / thrombus distal” value with IVC thrombus is recorded as “absent”. In the case of “NANNFYTWEAC [SEQ ID NO: 7, peptide derived from TFPI-2]”, in experiment [3], the “procoagulant effect of heparanase (plasma TAT levels)” value was “partially inhibited”.

As to “NNAEICLLPLDYGP [SEQ ID NO: 5, peptide derived from TFPI-2]”, the “clot formation / thrombus distal” value in the experiment on IVC thrombus is on record as “absent”.

Regarding “NNFYTWEACDDACW [SEQ ID NO: 2, peptide derived from TFPI-2]”, the “procoagulant effect of heparanase (plasma TAT levels)” value in experiment [3] is listed as “partially inhibited”.

B1: heparanase: Single chain GS3 heparanase construct comprising the 8 and 50 kDa subunits, purified from baculovirus-infected cells (protein)
chain: QDVVDLDFFTQEPLHLVSPSFLSVTIDANLATDPRFLILLGSPKLRTLARGLSPAYLRFGGTKTDFLIFDPKKESTFEERSYWQSQVNQDICKYGSIPPDVEEKLRLEWPYQEQLLLREHYQKKFKNSTYSRSSVDVLYTFANCSGLDLIFGLNALLRTADLQWNSSNAQLLLDYCSSKGYNISWELGNEPNSFLKKADIFINGSQLGEDFIQLHKLLRKSTFKNAKLYGPDVGQPRRKTAKMLKSFLKAGGEVIDSVTWHHYYLNGRTATKEDFLNPDVLDIFISSVQKVFQVVESTRPGKKVWLGETSSAYGGGAPLLSDTFAAGFMWLDKLGLSARMGIEVVMRQVFFGAGNYHLVDENFDPLPDYWLSLLFKKLVGTKVLMASVQGSKRRKLRVYLHCTNTDNPRYKEGDLTLYAINLHNVTKYLRLPYPFSNKQVDKYLLRPLGPHGLLSKSVQLNGLTLKMVDDQTLPPLMEKPLRPGSSLGLPAFSYSFFVIRNAKVAACI
Turning to B1, in the experiment with coagulation activation, the “D-Dimer level compared with control group (PBS)” value is recorded as “increased”, the “IL-6 level compared with control group” value was “did not increase” and the “TAT level compared with control group (PBS)” value is on record as “increased”.
